Experimental data reported in patent publication US20220401514A1, “ANTIMICROBIAL, BACTERIOPHAGE-DERIVED POLYPEPTIDES AND THEIR USE AGAINST GRAM-NEGATIVE AND ACID-FAST BACTERIA” (CONTRAFECT CORPORATION, priority 2019, published 2022).
Read-outs that look alike come from different tables or passages of the source.

How the values were obtained:
Escherichia coli = assay: microbe, parasite or virus in culture; type: cell-based
Outline: (§1)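 Strains are exposed to peptide dilutions in CAA containing human serum, and the minimal inhibitory concentration is recorded.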

Enterobacter cloacae = assay: microbe, parasite or virus in culture; type: cell-based
Outline: as §1

M. avium = assay: 45 hr MIC against M. avium (NTM); type: cell-based, Mycobacterium avium; details: M. avium Chester ATCC 700898
[1] = tested on: M. kansasii Hauduroy ATCC 12478; assay: 45 hr MIC against M. kansasii (NTM), Mueller Hinton broth; type: cell-based, Mycobacterium kansasii
M. scrofulaceum = assay: 45 hr MIC against M. scrofulaceum (NTM); type: cell-based, Mycobacterium scrofulaceum; details: M. scrofulaceum Prissick and Masson ATCC 19981
M. fortuitum = assay: 45 hr MIC against M. fortuitum (NTM); type: cell-based, Mycobacterium fortuitum; details: M. fortuitum subsp. Fortuitum da Costa Cruz. ATCC 6841
Acinetobacter baumannii = assay: microbe, parasite or virus in culture; type: cell-based
[2] = tested on: Pseudomonas aeruginosa, Escherichia coli, Enterobacter cloacae, Klebsiella pneumoniae, and Acinetobacter baumannii; assay: MIC against a range of Gram-negative organisms (statements covering several species); type: cell-based; details: Tables 40-44 isolates
Outline: as §1

[3] = tested on: P. aeruginosa strain CFS-1292; assay: MIC in presence of mouse, rat, rabbit and human serum ([…] each); type: cell-based, Pseudomonas aeruginosa; details: P. aeruginosa CFS-1292
Method: The activity of several Chp peptides against P. aeruginosa strain CFS-1292 in animal serum was evaluated. […] Rat, mouse, and rabbit serum were all obtained from pooled gender samples.

Pseudomonas aeruginosa = assay: microbe, parasite or virus in culture; type: cell-based; details: for MIC: CAA without human serum
[4] = tested on: Mycobacterium tuberculosis strains
Method: MIC values for various Chp peptides were determined using the CLSI method for broth microdilution in 96-well microtiter format.
Next, MIC values for various Chp peptides were determined using the CLSI method above for broth microdilution in 96-well microtiter format for two different Mycobacterium tuberculosis strains. The MIC was determined as explained above for the NTM strains.

[5] = tested on: carbapenem-resistant bacterial strains; assay: organism not typed; type: cell-based
From the text: (§2) Determination of Minimal Inhibitory Concentrations (MIC).

M. intracellulare = assay: 45 hr MIC against M. intracellulare (NTM); type: cell-based, Mycobacterium intracellulare; details: M. intracellulare (Cuttino and McCabe) Runyon ATCC 13950
Klebsiella pneumoniae = type: cell-based
Method: as §2
Additional MIC testing was performed for several peptides against the ESKAPE pathogens Escherichia coli, Enterobacter cloacae, Klebsiella pneumoniae, and Acinetobacter baumannii, in CAA supplemented with human serum (Table D).

[6] = tested on: P. aeruginosa strain CFS-1292; assay: MIC in presence and absence of Survanta pulmonary surfactant; type: cell-based, Pseudomonas aeruginosa
[7] = tested on: P. aeruginosa strain CFS-1292; assay: Checkerboard assay (FICI) with antibiotics, P. aeruginosa; type: cell-based, Pseudomonas aeruginosa; details: for FICI: CAA + […] human serum
Outline: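 Antibiotic diluted 2-fold along one plate axis against Chp peptide; bacteria added at 1×10^5 […] in CAA, optionally with human serum or pulmonary surfactant.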

[8] = E. coli isolates (n per peptide in table)
[9] = E. cloacae isolates (n per peptide in table)
[10] = A. baumannii isolates (n per peptide in table)
[11] = P. aeruginosa isolates (n per peptide in table)
[12] = K. pneumoniae isolates (n per peptide in table)

In the case of “MARRYRLSRRRSRRLFSRTALRMHRRNRLRRIMRGGIRF [Chp4]”, the MIC (Escherichia coli; E. coli (ATCC 25922, MIC control strain), RSC 813, CAA without human serum) is reported as 2 µg/mL, the MIC (Escherichia coli; E. coli (HM346, colon, Crohn's disease), RSC 1212, CAA without human serum) is reported as 4 µg/mL and the MIC50 (Escherichia coli; [8]) is reported as 1 µg/mL. For the same sequence, the MIC100 (Escherichia coli; [8]) was 2 µg/mL, the “MIC Range” value (Escherichia coli; [8]) was 0.5 to 4 µg/mL and the MIC (Escherichia coli; Escherichia coli ATCC 25922, CAA supplemented with human serum) was 0.5 µg/mL. For the same sequence, the MIC50 (Enterobacter cloacae; [9]) was 0.5 µg/mL, the MIC100 (Enterobacter cloacae; [9]) was 1 µg/mL and the “MIC Range” value (Enterobacter cloacae; [9]) was 0.25 to 2 µg/mL. The MIC (Enterobacter cloacae; Enterobacter cloacae (ATCC 13047, MIC control strain), RSC 1240, CAA without human serum) was 4 µg/mL, the MIC (Enterobacter cloacae; Enterobacter cloacae ATCC 13047, CAA supplemented with human serum) was 1 µg/mL and the “45 hr MIC” value (M. avium) was 1 µg/mL. For the same sequence, the “45 hr MIC” value [1] was over 0.125 µg/mL, the “45 hr MIC” value (M. scrofulaceum) was 2 µg/mL and the “45 hr MIC” value (M. fortuitum) was 4 µg/mL. The MIC50 (Acinetobacter baumannii; [10]) was 0.5 µg/mL, the MIC100 (Acinetobacter baumannii; [10]) was 1 µg/mL and the “MIC Range” value (Acinetobacter baumannii; [10]) was 0.25 to 1 µg/mL. It also gave an MIC (Acinetobacter baumannii; Acinetobacter baumannii (clinical isolate HSS), RSC 30, CAA without human serum) of 4 µg/mL, an MIC (Acinetobacter baumannii; Acinetobacter baumannii (clinical isolate HSS), RSC 32, CAA without human serum) of 4 µg/mL and an MIC (Acinetobacter baumannii; Acinetobacter baumannii ATCC BAA 747, CAA supplemented with human serum) of 0.125 µg/mL. For the same sequence, the “activity (good = MIC100 of ≤4) against all of P. aeruginosa, K. pneumoniae, A. baumannii, E. cloacae, and E. coli” value [2] was “good activity”, the “MIC BALB/C Mouse Serum” value ([3]; BALB/C mouse serum […]) was 32 µg/mL and the “MIC CAA” value ([3]; CAA) was 0.5 µg/mL. For the same sequence, the “MIC New Zealand White Rabbit Serum” value ([3]; New Zealand White rabbit serum […]) was 2 µg/mL, the “MIC Sprague Dawley Rat Serum” value ([3]; Sprague Dawley rat serum […]) was 2 µg/mL and the “MIC Human Serum” value ([3]; human serum […]) was 0.5 µg/mL. It also gave an MIC (Pseudomonas aeruginosa; P. aeruginosa 453 (Human clinical isolate, HSS), RSC 1292) of 4 µg/mL, an MIC (Pseudomonas aeruginosa; P. aeruginosa (ATCC 14213, human hip wound), RSC 1111) of 4 µg/mL and an MIC (Pseudomonas aeruginosa; P. aeruginosa (ATCC 15152, abscess in middle ear), RSC 1110) of 4 µg/mL. The MIC (Pseudomonas aeruginosa; P. aeruginosa (ATCC 15692, infected wound), RSC 489) was 4 µg/mL, the MIC (Pseudomonas aeruginosa; P. aeruginosa (ATCC 15692, infected wound), RSC 1115) was 4 µg/mL and the MIC (Pseudomonas aeruginosa; P. aeruginosa (ATCC 17646, human liver abscess), RSC 1109) was 4 µg/mL. For the same sequence, the MIC (Pseudomonas aeruginosa; P. aeruginosa (ATCC 19142, tracheobronchial secretion), RSC 1108) was 4 µg/mL, the MIC (Pseudomonas aeruginosa; P. aeruginosa (ATCC 25102, bacteriophage host), RSC 1114) was 4 µg/mL and the MIC (Pseudomonas aeruginosa; P. aeruginosa (ATCC 27853, MIC control strain), RSC 815) was 4 µg/mL. For the same sequence, the MIC (Pseudomonas aeruginosa; P. aeruginosa (ATCC BAA-27, lab strain), RSC 1113) was 4 µg/mL, the MIC (Pseudomonas aeruginosa; P. aeruginosa (PAO1, alternate source, HER1018), RSC 490) was 4 µg/mL and the MIC50 (Pseudomonas aeruginosa; [11]) was 1 µg/mL. For the same sequence, the MIC100 (Pseudomonas aeruginosa; [11]) was 1 µg/mL, the “MIC Range” value (Pseudomonas aeruginosa; [11]) was 0.5 to 1 µg/mL and the MIC ([4]; Mycobacterium tuberculosis (Zopf) Lehmann and Neumann ATCC 25177) was 16 µg/mL. For the same sequence, the MIC ([4]; Mycobacterium tuberculosis (Zopf) Lehmann and Neumann ATCC 35817) was 8 µg/mL, the MIC ([5]; carbapenem-resistant isolate PA19) was 0.5 µg/mL and the MIC ([5]; carbapenem-resistant isolate PA20) was 1 µg/mL. For the same sequence, the MIC ([5]; carbapenem-resistant isolate PA21) was 1 µg/mL, the MIC ([5]; carbapenem-resistant isolate PA22) was 1 µg/mL and the MIC ([5]; carbapenem-resistant isolate PA23) was 1 µg/mL. The MIC ([5]; carbapenem-resistant isolate PA24) was 1 µg/mL, the MIC ([5]; carbapenem-resistant isolate WLC-452) was 0.5 µg/mL and the “45 hr MIC” value (M. intracellulare) was 1 µg/mL. For the same sequence, the MIC50 (Klebsiella pneumoniae; [12]) was 1 µg/mL, the MIC100 (Klebsiella pneumoniae; [12]) was 1 µg/mL and the “MIC Range” value (Klebsiella pneumoniae; [12]) was 0.5 to 1 µg/mL. It also gave an MIC (Klebsiella pneumoniae; Klebsiella pneumoniae HM-44, CAA supplemented with human serum) of 0.25 µg/mL, an MIC ([6]; CAA media + 0.19 mg/mL Survanta) of 0.5 µg/mL and an MIC ([6]; CAA media + […] Survanta) of 0.5 µg/mL. For the same sequence, the MIC ([6]; CAA media alone) was 0.5 µg/mL, the “interaction between the Chp peptide and the antibiotic (FICI values)” value ([7]; P. aeruginosa CFS-1292, range of antibiotics) was “either synergy (i.e., ≤0.5) or strongly additive (i.e., >0.5-1)” and the FICI ([7]; combination with Amikacin) was 0.500. The FICI ([7]; combination with Azithromycin) was 0.156, the FICI ([7]; combination with Aztreonam) was 0.375 and the FICI ([7]; combination with Ciprofloxacin) was 0.375. For the same sequence, the FICI ([7]; combination with Colistin) was 0.375, the FICI ([7]; combination with Fosfomycin) was 0.250 and the FICI ([7]; combination with Gentamicin) was 0.250. For the same sequence, the FICI ([7]; combination with Imipenem) was 0.375, the FICI ([7]; combination with Piperacillin) was 0.188 and the FICI ([7]; combination with Rifampicin) was 0.750. The FICI ([7]; combination with Tobramycin) was 0.266.
